The source of these data is patent publication US9365583B2, “Substituted pyrazoles and uses thereof” (Genentech, Inc., priority 2013, dated 2016).

The experiment addresses T1, N-terminally GST-tagged DLK (catalytic domain amino acid 1-520) (Homo sapiens, UniProt Q12852).
T1 construct: N-terminally GST-tagged DLK (catalytic domain amino acid 1-520); purchased Carna Bioscience
T1 sequence (Q12852 1-520): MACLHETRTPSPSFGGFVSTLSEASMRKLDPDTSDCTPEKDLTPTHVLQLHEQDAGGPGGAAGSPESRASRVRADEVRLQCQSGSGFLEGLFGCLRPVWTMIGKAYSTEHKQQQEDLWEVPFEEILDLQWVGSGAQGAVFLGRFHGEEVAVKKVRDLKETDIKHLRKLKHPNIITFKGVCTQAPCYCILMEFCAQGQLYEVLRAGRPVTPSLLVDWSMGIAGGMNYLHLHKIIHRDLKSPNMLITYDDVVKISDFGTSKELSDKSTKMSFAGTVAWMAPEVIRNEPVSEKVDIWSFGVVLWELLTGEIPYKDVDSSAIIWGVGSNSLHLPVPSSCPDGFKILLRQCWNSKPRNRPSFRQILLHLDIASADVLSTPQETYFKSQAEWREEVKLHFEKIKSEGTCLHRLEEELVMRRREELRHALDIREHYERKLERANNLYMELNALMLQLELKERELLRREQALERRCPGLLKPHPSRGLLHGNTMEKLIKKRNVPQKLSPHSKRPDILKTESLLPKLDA
Kind of experiment: DLK TR-FRET inhibition assay. Type of experiment: biochemical. To be noted: 5 nM GST-DLK, 40 nM HIS-MKK4 K131M substrate, 30 μM ATP, 60 minutes at ambient temperature. The method, then: DLK TR-FRET inhibition assay: DLK kinase reactions (20 μL) containing 5 nM N-terminally GST-tagged DLK (catalytic domain amino acid 1-520) (Carna Bioscience), 40 nM N-terminally HIS-tagged MKK4 K131M substrate, and 30 μM ATP in kinase reaction buffer (50 mM HEPES, pH 7.5, 0.01% Triton X-100, 0.01% Bovine γ-Globulins, 2 mM DTT, 10 mM MgCl2 and 1 mM EGTA), and testing compound 1:3 serial diluted starting at 20 uM were incubated at ambient temperature for 60 minutes in 384 well OptiPlate (Perkin Elmer). To quench kinase reactions and detect phosphorylated MKK4, 15 μL of TR-FRET antibody mixture containing 2 nM anti-phosphorylated MKK4 labeled with Europium cryptate (Cisbio) and 23 nM anti-HIS labeled with D2 (Cisbio) in detection buffer (25 mM Tris pH 7.5, 100 mM NaCl, 100 mM EDTA, 0.01% Tween-20, and 200 mM KF) was added to the reaction mixture. The detection mixture was incubated for 3 hours at ambient temperature and the TR-FRET was detected with an EnVision multilabel plate reader (Perkin-Elmer) using the LANCE/DELFIA Dual Enh label from Perkin-Elmer (excitation filter: UV2 (TRF) 320 and emission filters: APC 665 and Europium 615).
A general note: TR-FRET usually uses a lanthanide donor and a delayed reading to cut background.
With `COCCN1CC[C@@]12C[C@@H]1[C@H](C2)[C@H]1c1cc(-c2cnc(N)c(OC(F)(F)F)c2)nn1C(C)C` [compound 146, 5-(1-isopropyl-5-((1′R,2r,5′S,6′r)-1-(2-methoxyethyl)spiro[azetidine-2,3′-bicyclo[3.1.0]hexan]-6-yl)-1H-pyrazol-3-yl)-3-(trifluoro-methoxy)pyridin-2-amine], affinity was put at a Ki of 4.3 nM. Regarding `CC(C)n1nc(-c2cnc(N)c(OC(F)F)c2)cc1[C@H]1[C@@H]2C[C@H](NCC(F)(F)F)C[C@@H]21` [compound 120, 3-(difluoromethoxy)-5-(1-isopropyl-5-((1R,3r,5S,6r)-3-((2,2,2-trifluoroethyl)amino)bicyclo [3.1.0]hexan-6-yl)-1H-pyrazol-3-yl) pyridin-2-amine], the Ki (usually a dissociation constant, usually derived from enzyme kinetics or from competition with a known ligand) was 6.91 nM. The result for `COC1CCN([C@H]2C[C@@H]3[C@H](C2)[C@H]3c2cc(-c3cnc(N)c(OC(F)(F)F)c3)nn2C(C)C)CC1` [compound 248, 5-(1-isopropyl-5-((1R,3r,5S,6r)-3-(4-methoxypiperidin-1-yl)bicyclo[3.1.0]hexan-6-yl)-1H-pyrazol-3-yl)-3-(trifluoromethoxy) pyridin-2-amine] reads 2.8 nM; that for `CC(C)n1nc(-c2cnc(N)c(OC(F)F)c2)cc1[C@H]1[C@@H]2C[C@H](N3CCCN(C)CC3)C[C@@H]21` [compound 208, 3-(difluoromethoxy)-5-(1-isopropyl-5-((1R,3r,5S,6r)-3-(4-methyl-1,4-diazepan-1-yl)bicyclo[3.1.0]hexan-6-yl)-1H-pyrazol-3-yl) pyridin-2-amine], 1.5 nM; that for `CC(C)n1nc(-c2cnc(N)c(C(F)(F)F)c2)cc1[C@H]1[C@@H]2C[C@H](N3CCN(CC(F)F)CC3)C[C@@H]21` [compound 265, 5-(5-((1R,3r,5S,6r)-3-(4-(2,2-difluoroethyl)piperazin-1-yl)bicyclo[3.1.0]hexan-6-yl)-1-isopropyl-1H-pyrazol-3-yl)-3-(trifluoromethyl)pyridin-2-amine], 2.5 nM.

In turn, `CC(C)n1nc(-c2cnc(N)c(C(F)(F)F)c2)cc1[C@H]1[C@@H]2CC(C#N)C[C@@H]21` (single isomer, unassigned) [compound 190] yielded a Ki of 4.8 nM. Compared with the last compound, the Ki is about 1.9-fold higher. As for `Nc1ncc(-c2cc([C@H]3[C@@H]4C[C@@H](N5CCOCC5)C[C@@H]43)n(C3CCC3)n2)cc1OC(F)F` [compound 131, 5-(1-cyclobutyl-5-((1R,3s,5S,6r)-3-morpholinobicyclo[3.1.0]hexan-6-yl)-1H-pyrazol-3-yl)-3-(difluoromethoxy)pyridin-2-amine], the figure is 3.5 nM; as for `Nc1ncc(-c2cc([C@H]3[C@@H]4CC(O)C[C@@H]43)n(CC(F)F)n2)cc1OC(F)(F)F` (stereo partly drawn) [compound 94, (1R,5S,6r)-6-(3-(6-amino-5-(trifluoromethoxy)pyridin-3-yl)-1-(2,2-difluoroethyl)-1H-pyrazol-5-yl)bicyclo[3.1.0]hexan-3-ol], 1.45 nM. `COC1CN([C@@H]2C[C@@H]3[C@H](C2)[C@H]3c2cc(-c3cnc(N)c(OC(F)F)c3)nn2CC2CC2)C1` [compound 155, 5-(1-(cyclopropylmethyl)-5-((1R,3s,5S,6r)-3-(3-methoxyazetidin-1-yl)bicyclo[3.1.0]hexan-6-yl)-1H-pyrazol-3-yl)-3-(difluoromethoxy)pyridin-2-amine] registered a Ki of 3.3 nM. In turn, `CC(C)n1nc(-c2cnc(N)c(OC(F)F)c2)cc1[C@H]1[C@@H]2C[C@@H](N3CCN(C)CC3)C[C@@H]21` [compound 199, 3-(difluoromethoxy)-5-(1-isopropyl-5-((1R,3s,5S,6r)-3-(4-methyl-piperazin-1-yl)bicyclo[3.1.0]hexan-6-yl)-1H-pyrazol-3-yl) pyridin-2-amine] came in with a Ki of 1.8 nM. The result for `CC(C)n1nc(-c2cnc(N)c(C(F)(F)F)c2)cc1[C@H]1[C@@H]2C[C@H](n3cccn3)C[C@@H]21` [compound 111, 5-(5-((1R,3r,5S,6r)-3-(1H-pyrazol-1-yl)bicyclo[3.1.0]hexan-6-yl)-1-isopropyl-1H-pyrazol-3-yl)-3-(trifluoromethyl)pyridin-2-amine] reads 8.61 nM; that for `COC1CN([C@H]2C[C@@H]3[C@H](C2)[C@H]3c2cc(-c3cnc(N)c(OC(F)F)c3)nn2CC2CC2)C1` [compound 154, 5-(1-(cyclopropylmethyl)-5-((1R,3r,5S,6r)-3-(3-methoxyazetidin-1-yl)bicyclo[3.1.0]hexan-6-yl)-1H-pyrazol-3-yl)-3-(difluoromethoxy)pyridin-2-amine], 0.7 nM. Consider `CC(C)n1nc(-c2cnc(N)c(OC(F)(F)F)c2)cc1[C@H]1[C@@H]2C[C@H](N3CCNCC3)C[C@@H]21` [compound 244, 5-(1-isopropyl-5-((1R,3r,5S,6r)-3-(piperazin-1-yl)bicyclo[3.1.0]hexan-6-yl)-1H-pyrazol-3-yl)-3 - (trifluoromethoxy)pyridin-2-amine], for which the affinity, expressed as Ki, was 1.1 nM. This Ki lies about 1.6-fold higher than the previous one. The compound `CC(C)n1nc(-c2cnc(N)c(OC(F)F)c2)cc1[C@H]1[C@@H]2C[C@@H](N3CCO[C@H](C)C3)C[C@@H]21` [compound 74, 3-(difluoromethoxy)-5-(1-isopropyl-5-((1R,3s,5S,6R)-3-((R)-2-methylmorpholino)bicyclo[3.1.0]hexan-6-yl)-1H-pyrazol-3-yl) pyridin-2-amine] yielded a Ki of 3.75 nM. As for `CC(C)n1nc(-c2cnc(N)c(OC(F)F)c2)cc1[C@H]1[C@@H]2C[C@H](N3C[C@@H](F)[C@@H](F)C3)C[C@@H]21` [compound 118, 3-(difluoromethoxy)-5-(5-((1R,3r,5S,6R)-3-((3S,4R)-3,4-difluoro-pyrrolidin-1-yl)bicyclo[3.1.0]hexan-6-yl)-1-isopropyl-1H-pyrazol-3-yl)pyridin-2-amine], the figure is 3.75 nM; as for `CC(C)n1nc(-c2cnc(N)c(C(F)(F)F)c2)cc1[C@H]1[C@@H]2C[C@H](N3CCN4CCCC4C3)C[C@@H]21` (stereo partly drawn) [compound 262, 5-(5-((1R,3r,5S,6r)-3-(hexa-hydropyrrolo[1,2-a]pyrazin-2(1H)-yl)bicyclo[3.1.0]hexan-6-yl)-1-isopropyl-1H-pyrazol-3-yl)-3-(trifluoromethyl)pyridin-2-amine], < 0.1 nM; as for `CC(C)n1nc(-c2cnc(N)c(OC(F)F)c2)cc1[C@H]1[C@@H]2C[C@@H](N3CC4(CN(C)CCO4)C3)C[C@@H]21` [compound 224, 3-(difluoromethoxy)-5-(1-isopropyl-5-((1R,3s,5S,6r)-3-(8-methyl-5-oxa-2,8-diazaspiro[3.5]nonan-2-yl)bicyclo[3.1.0]hexan-6-yl)-1H-pyrazol-3-yl)pyridin-2-amine], 3.8 nM. The result for `CC(C)n1nc(-c2cnc(N)c(OC(F)(F)F)c2)cc1[C@H]1[C@@H]2C[C@H](N(C)C3COC3)C[C@@H]21` [compound 47, 5-(1-isopropyl-5-((1R,3r,5S,6r)-3-(methyl(oxetan-3-yl)amino)bicyclo[3.1.0]hexan-6-yl)-1H-pyrazol-3-yl)-3-(trifluoromethoxy) pyridin-2-amine] reads 4.11 nM; that for `CC(C)n1nc(-c2cnc(N)c(C(F)(F)F)c2)cc1[C@H]1[C@@H]2C[C@@H](N3CCOC[C@@H]3C)C[C@@H]21` [compound 103, 5-(1-isopropyl-5-((1R,3s,5S,6S)-3-((S)-3-methylmorpholino)bicyclo[3.1.0]hexan-6-yl)-1H-pyrazol-3-yl)-3-(trifluoromethyl) pyridin-2-amine], 1.28 nM. In the case of `CC(C)n1nc(-c2cnc(N)c(OC(F)(F)F)c2)cc1[C@@H]1[C@@H]2C[C@H](N3CCOCC3)C[C@@H]21` [compound 125, 5-(1-isopropyl-5-((1R,3r,5S,6s)-3-morpholinobicyclo[3.1.0]hexan-6-yl)-1H-pyrazol-3-yl)-3-(trifluoro-methoxy)pyridin-2-amine], the Ki was > 1600 nM. As for `CC(C)n1nc(-c2cnc3cnn([C@@H](C)c4ccccn4)c3c2)cc1[C@H]1[C@@H]2C[C@H](N3CCOCC3)C[C@@H]21` [compound 34, 4-((1R,3S,5S,6r)-6-(1-isopropyl-3-(1-((S)-1-(pyridin-2-yl)ethyl)-1H-pyrazolo[4,3-b]pyridin-6-yl)-1H-pyrazol-5-yl)bicyclo[3.1.0]hexan-3-yl)morpholine], the figure is 4.19 nM.
